Laboratory results as given in patent US20250032651A1, “[177LU] LUTETIUM-PSMA I&T COMPOSITION AND DOSIMETRY, KIT, METHOD OF MAKING, AND METHOD OF USING THEREOF” (Curium US LLC, priority 2022, published 2025).

Assay: Cycle 3 dosimetry (TACs of cycle 1 scaled to cycle 3 time points)
Assay type: in vivo, human
Conditions: for Absorbed Dose in Cycle 3, Mean / Absorbed Dose in Cycle 3, max / Absorbed Dose in Cycle 3, min: N = 16
Description: (§1) To evaluate potential changes in the tracer's kinetics and uptake after multiple treatment cycles, 16 of the 27 patients included in the dosimetry sub study, were imaged at both cycle 1 and cycle 3. Among these, at cycle 3, three patients were imaged at all 4 timepoints and the other 13 were imaged at one or two timepoints only (24 h, 48 h or both 24 h and 48 h) (Table 2). For these 13 patients, the TACs obtained at cycle 1 were used for each source organ and scaled to the normalized activity value(s) measured at Cycle 3. For patients imaged at two timepoints, the TACs were preferably scaled using the average scaling factor between the two timepoints.
A subgroup of 16 out of the 27 patients underwent and additional dosimetry assessment at Cycle 3. Among these, three patients had dosimetry performed based on images taken at 4 timepoints, while the remaining patients had dosimetry performed at 1 or 2 imaging timepoints only.
as §1, with “7 in Appendix 1).” for “2).”

[1] = Lacrimal Glands (OLINDA sphere model)
[2] = Lacrimal Glands, OLINDA sphere model

Structure (SMILES): O=C([O-])CC[C@H](NC(=O)N[C@@H](CCCCNC(=O)CCCCCCC(=O)NCCCC[C@@H](NC(=O)[C@@H](Cc1ccccc1)NC(=O)[C@@H](Cc1ccc(O)c(I)c1)NC(=O)CC[C@H](C(=O)[O-])N1CCN(CC(=O)[O-])CCN(CC(=O)[O-])CCN(CC(=O)[O-])CC1)C(=O)[O-])C(=O)[O-])C(=O)[O-].[177Lu+3].[H+].[H+].[H+].[H+].[H+] [^177Lu-PSMA I&T, (3S,7S,26R,29R,32R,37R)-29-benzyl-32-(4-hydroxy-3-iodobenzyl)-5,13,20,28,31,34-hexaoxo-37-(4,7,10-tris(carboxymethyl)-1,4,7,10-tetraazacyclododecan-1-yl)-4,6,12,21,27,30,33-heptaazaheptatriacontane-1,3,7,26,37-pentacarboxylic acid; lutetium-177 (III)]
- Absorbed Dose in Cycle 3, Mean (Adrenals): 0.02 Gy/GBq
- Absorbed Dose in Cycle 3, max (Adrenals): 0.03 Gy/GBq
- Absorbed Dose in Cycle 3, min (Adrenals): 0.01 Gy/GBq
- Absorbed Dose in Cycle 3, Mean (Brain): 0.01 Gy/GBq
- Absorbed Dose in Cycle 3, max (Brain): 0.02 Gy/GBq
- Absorbed Dose in Cycle 3, min (Brain): 0.00 Gy/GBq
- absorbed radiation dose, kidneys (mean ± SD) (Cycle 3, 16 patients imaged at cycle 1 and 3): 0.49±0.19 Gy/GBq
- Absorbed Dose in Cycle 3, Mean (Esophagus): 0.01 Gy/GBq
- Absorbed Dose in Cycle 3, max (Esophagus): 0.02 Gy/GBq
- Absorbed Dose in Cycle 3, min (Esophagus): 0.00 Gy/GBq
- Absorbed Dose in Cycle 3, Mean (Eyes): 0.01 Gy/GBq
- Absorbed Dose in Cycle 3, max (Eyes): 0.02 Gy/GBq
- Absorbed Dose in Cycle 3, min (Eyes): 0.00 Gy/GBq
- Absorbed Dose in Cycle 3, Mean (Gallbladder wall): 0.01 Gy/GBq
- Absorbed Dose in Cycle 3, max (Gallbladder wall): 0.02 Gy/GBq
- Absorbed Dose in Cycle 3, min (Gallbladder wall): 0.00 Gy/GBq
- Absorbed Dose in Cycle 3, Mean (Heart wall): 0.01 Gy/GBq
- Absorbed Dose in Cycle 3, max (Heart wall): 0.02 Gy/GBq
- Absorbed Dose in Cycle 3, min (Heart wall): 0.00 Gy/GBq
- Absorbed Dose in Cycle 3, Mean (Kidneys): 0.49 Gy/GBq
- Absorbed Dose in Cycle 3, max (Kidneys): 0.85 Gy/GBq
- Absorbed Dose in Cycle 3, min (Kidneys): 0.19 Gy/GBq
- Absorbed Dose in Cycle 3, Mean [1]: 0.29 Gy/GBq
- Absorbed Dose in Cycle 3, max [1]: 0.73 Gy/GBq
- Absorbed Dose in Cycle 3, min [1]: 0.10 Gy/GBq
- Absorbed Dose in Cycle 3, Mean [2]: 0.29 Gy/GBq
- Absorbed Dose in Cycle 3, max [2]: 0.73 Gy/GBq
- Absorbed Dose in Cycle 3, min [2]: 0.10 Gy/GBq
- Absorbed Dose in Cycle 3, Mean (Left colon): 0.41 Gy/GBq
- Absorbed Dose in Cycle 3, max (Left colon): 0.94 Gy/GBq
- Absorbed Dose in Cycle 3, min (Left colon): 0.07 Gy/GBq
- Absorbed Dose in Cycle 3, Mean (Liver): 0.06 Gy/GBq
- Absorbed Dose in Cycle 3, max (Liver): 0.15 Gy/GBq
- Absorbed Dose in Cycle 3, min (Liver): 0.00 Gy/GBq
- Absorbed Dose in Cycle 3, Mean (Lungs): 0.01 Gy/GBq
- Absorbed Dose in Cycle 3, max (Lungs): 0.02 Gy/GBq
- Absorbed Dose in Cycle 3, min (Lungs): 0.00 Gy/GBq
- Absorbed Dose in Cycle 3, Mean (Osteogenic cells): 0.02 Gy/GBq
- Absorbed Dose in Cycle 3, max (Osteogenic cells): 0.09 Gy/GBq
- Absorbed Dose in Cycle 3, min (Osteogenic cells): 0.00 Gy/GBq
- Absorbed Dose in Cycle 3, Mean (Pancreas): 0.01 Gy/GBq
- Absorbed Dose in Cycle 3, max (Pancreas): 0.02 Gy/GBq
- Absorbed Dose in Cycle 3, min (Pancreas): 0.00 Gy/GBq
- Absorbed Dose in Cycle 3, Mean (Prostate): 0.01 Gy/GBq
- Absorbed Dose in Cycle 3, max (Prostate): 0.02 Gy/GBq
- Absorbed Dose in Cycle 3, min (Prostate): 0.01 Gy/GBq
- Absorbed Dose in Cycle 3, Mean (Rectum): 0.39 Gy/GBq
- Absorbed Dose in Cycle 3, max (Rectum): 0.90 Gy/GBq
- Absorbed Dose in Cycle 3, min (Rectum): 0.06 Gy/GBq
- Absorbed Dose in Cycle 3, Mean (Red Marrow): 0.03 Gy/GBq
- Absorbed Dose in Cycle 3, max (Red Marrow): 0.17 Gy/GBq
- Absorbed Dose in Cycle 3, min (Red Marrow): 0.00 Gy/GBq
- Absorbed Dose in Cycle 3, Mean (Right Colon): 0.22 Gy/GBq
- Absorbed Dose in Cycle 3, max (Right Colon): 0.51 Gy/GBq
- Absorbed Dose in Cycle 3, min (Right Colon): 0.04 Gy/GBq
- Absorbed Dose in Cycle 3, Mean (Salivary Glands): 0.20 Gy/GBq
- Absorbed Dose in Cycle 3, max (Salivary Glands): 0.69 Gy/GBq
- Absorbed Dose in Cycle 3, min (Salivary Glands): 0.04 Gy/GBq
- Absorbed Dose in Cycle 3, Mean (Small intestine): 0.04 Gy/GBq
- Absorbed Dose in Cycle 3, max (Small intestine): 0.10 Gy/GBq
- Absorbed Dose in Cycle 3, min (Small intestine): 0.01 Gy/GBq
- Absorbed Dose in Cycle 3, Mean (Spleen): 0.03 Gy/GBq
- Absorbed Dose in Cycle 3, max (Spleen): 0.12 Gy/GBq
- Absorbed Dose in Cycle 3, min (Spleen): 0.01 Gy/GBq
- Absorbed Dose in Cycle 3, Mean (Stomach Wall): 0.01 Gy/GBq
- Absorbed Dose in Cycle 3, max (Stomach Wall): 0.02 Gy/GBq
- Absorbed Dose in Cycle 3, min (Stomach Wall): 0.00 Gy/GBq
- Absorbed Dose in Cycle 3, Mean (Testes): 0.01 Gy/GBq
- Absorbed Dose in Cycle 3, max (Testes): 0.02 Gy/GBq
- Absorbed Dose in Cycle 3, min (Testes): 0.00 Gy/GBq
- Absorbed Dose in Cycle 3, Mean (Thymus): 0.01 Gy/GBq
- Absorbed Dose in Cycle 3, max (Thymus): 0.02 Gy/GBq
- Absorbed Dose in Cycle 3, min (Thymus): 0.00 Gy/GBq
- Absorbed Dose in Cycle 3, Mean (Thyroid): 0.01 Gy/GBq
- Absorbed Dose in Cycle 3, max (Thyroid): 0.02 Gy/GBq
- Absorbed Dose in Cycle 3, min (Thyroid): 0.00 Gy/GBq
- Absorbed Dose in Cycle 3, Mean (Total Body): 0.02 Gy/GBq
- Absorbed Dose in Cycle 3, max (Total Body): 0.03 Gy/GBq
- Absorbed Dose in Cycle 3, min (Total Body): 0.01 Gy/GBq
- Absorbed Dose in Cycle 3, Mean (Urinary Bladder wall): 0.45 Gy/GBq
- Absorbed Dose in Cycle 3, max (Urinary Bladder wall): 0.70 Gy/GBq
- Absorbed Dose in Cycle 3, min (Urinary Bladder wall): 0.36 Gy/GBq
